Drawing on publication PMC4389257, “Structural basis for full-spectrum inhibition of translational functions on a tRNA synthetase” (Nature Communications, 2015), this text covers Ki for one molecule.

This experiment has as its target T1, human threonyl-tRNA synthetase (ThrRS) (Homo sapiens, UniProt P26639).
T1 construct: gene TARS1
T1 sequence (P26639 322-723): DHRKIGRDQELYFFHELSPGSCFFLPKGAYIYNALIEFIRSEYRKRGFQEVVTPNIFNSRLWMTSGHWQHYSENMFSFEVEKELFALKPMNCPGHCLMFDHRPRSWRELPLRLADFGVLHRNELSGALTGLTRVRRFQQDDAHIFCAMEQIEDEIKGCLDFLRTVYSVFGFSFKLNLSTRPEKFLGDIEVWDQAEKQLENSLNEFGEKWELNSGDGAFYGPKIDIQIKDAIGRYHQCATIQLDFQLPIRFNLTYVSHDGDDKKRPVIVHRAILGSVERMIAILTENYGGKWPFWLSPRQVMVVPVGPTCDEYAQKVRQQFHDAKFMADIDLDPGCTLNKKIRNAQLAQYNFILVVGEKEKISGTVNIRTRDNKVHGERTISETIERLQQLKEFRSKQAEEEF
Nature of the experiment: X-ray co-crystal structure ([…] Å); aminoacylation assay Ki. The class given is biochemical.

`C[C@@H]1C[C@H](C)C[C@H](C)[C@@H](O)CC(=O)O[C@H]([C@@H]2CCC[C@H]2C(=O)O)C/C=C/C=C(/C#N)[C@H](O)[C@@H](C)C1` [BN, Borrelidin]: the Ki is approximately 7 nM.
